Source: the NIST ThermoML archive (doi:10.1021/je900596d)

Conditions: Vibrating tube method

FC(F)=C(F)C(F)(F)F [hexafluoropropene]
Conditions | mass density [kg/m3]
263.41 K, 162.7 kPa, Fluid (supercritical or subcritical phases) | 11.79
263.41 K, 164.3 kPa, Fluid (supercritical or subcritical phases) | 11.92
263.41 K, 165.5 kPa, Fluid (supercritical or subcritical phases) | 12.02
263.41 K, 167 kPa, Fluid (supercritical or subcritical phases) | 12.14
263.41 K, 168.6 kPa, Fluid (supercritical or subcritical phases) | 12.22
263.41 K, 170.1 kPa, Fluid (supercritical or subcritical phases) | 12.35
263.41 K, 171.8 kPa, Fluid (supercritical or subcritical phases) | 12.46
263.41 K, 173.2 kPa, Fluid (supercritical or subcritical phases) | 12.64
263.41 K, 174.8 kPa, Fluid (supercritical or subcritical phases) | 12.73
263.41 K, 176.4 kPa, Fluid (supercritical or subcritical phases) | 12.82
263.41 K, 177.9 kPa, Fluid (supercritical or subcritical phases) | 13
263.41 K, 179.4 kPa, Fluid (supercritical or subcritical phases) | 13.09
263.41 K, 180.9 kPa, Fluid (supercritical or subcritical phases) | 13.22
263.41 K, 182.4 kPa, Fluid (supercritical or subcritical phases) | 13.34
263.41 K, 183.9 kPa, Fluid (supercritical or subcritical phases) | 13.46
263.41 K, 185.4 kPa, Fluid (supercritical or subcritical phases) | 13.58
263.41 K, 186.9 kPa, Fluid (supercritical or subcritical phases) | 13.66
263.41 K, 188.4 kPa, Fluid (supercritical or subcritical phases) | 13.77
263.41 K, 189.9 kPa, Fluid (supercritical or subcritical phases) | 13.87
263.41 K, 191.3 kPa, Fluid (supercritical or subcritical phases) | 14.01
263.41 K, 192.8 kPa, Fluid (supercritical or subcritical phases) | 14.11
263.41 K, 194.2 kPa, Fluid (supercritical or subcritical phases) | 14.27
263.41 K, 195.7 kPa, Fluid (supercritical or subcritical phases) | 14.37
263.41 K, 197.1 kPa, Fluid (supercritical or subcritical phases) | 14.48
263.41 K, 198.5 kPa, Fluid (supercritical or subcritical phases) | 14.63
263.41 K, 199.9 kPa, Fluid (supercritical or subcritical phases) | 14.76
263.41 K, 201.3 kPa, Fluid (supercritical or subcritical phases) | 14.81
263.41 K, 202.7 kPa, Fluid (supercritical or subcritical phases) | 14.96
263.41 K, 204.1 kPa, Fluid (supercritical or subcritical phases) | 15.01
263.41 K, 205.5 kPa, Fluid (supercritical or subcritical phases) | 15.14
263.41 K, 206.9 kPa, Fluid (supercritical or subcritical phases) | 15.26
263.41 K, 208.3 kPa, Fluid (supercritical or subcritical phases) | 15.38
263.41 K, 209.6 kPa, Fluid (supercritical or subcritical phases) | 15.49
263.41 K, 211 kPa, Fluid (supercritical or subcritical phases) | 15.6
263.41 K, 212.3 kPa, Fluid (supercritical or subcritical phases) | 15.71
263.41 K, 213.6 kPa, Fluid (supercritical or subcritical phases) | 15.8
263.41 K, 214.9 kPa, Fluid (supercritical or subcritical phases) | 15.93
263.41 K, 216.3 kPa, Fluid (supercritical or subcritical phases) | 16.03
263.41 K, 217.6 kPa, Fluid (supercritical or subcritical phases) | 16.16
263.41 K, 218.8 kPa, Fluid (supercritical or subcritical phases) | 16.24
263.41 K, 220.2 kPa, Fluid (supercritical or subcritical phases) | 16.31
263.41 K, 220.6 kPa, Fluid (supercritical or subcritical phases) | 16.37
263.41 K, 221.1 kPa, Fluid (supercritical or subcritical phases) | 16.43
263.41 K, 221.5 kPa, Fluid (supercritical or subcritical phases) | 16.47
263.41 K, 222 kPa, Fluid (supercritical or subcritical phases) | 16.48
263.41 K, 222.4 kPa, Fluid (supercritical or subcritical phases) | 16.53
263.41 K, 223.2 kPa, Fluid (supercritical or subcritical phases) | 16.59
263.41 K, 223.6 kPa, Fluid (supercritical or subcritical phases) | 16.63
263.41 K, 224 kPa, Fluid (supercritical or subcritical phases) | 16.66
263.41 K, 224.4 kPa, Fluid (supercritical or subcritical phases) | 16.7
263.41 K, 225.4 kPa, Fluid (supercritical or subcritical phases) | 16.76
263.41 K, 226.2 kPa, Fluid (supercritical or subcritical phases) | 16.85
263.41 K, 226.6 kPa, Fluid (supercritical or subcritical phases) | 16.88
263.41 K, 227 kPa, Fluid (supercritical or subcritical phases) | 16.94
263.41 K, 227.9 kPa, Fluid (supercritical or subcritical phases) | 16.98
263.41 K, 228.6 kPa, Fluid (supercritical or subcritical phases) | 17.03
263.41 K, 229 kPa, Fluid (supercritical or subcritical phases) | 17.07
263.41 K, 229.9 kPa, Fluid (supercritical or subcritical phases) | 17.2
263.41 K, 230.7 kPa, Fluid (supercritical or subcritical phases) | 17.24
263.41 K, 231.4 kPa, Fluid (supercritical or subcritical phases) | 17.29
263.41 K, 231.9 kPa, Fluid (supercritical or subcritical phases) | 17.35
263.41 K, 232.6 kPa, Fluid (supercritical or subcritical phases) | 17.43
263.41 K, 233 kPa, Fluid (supercritical or subcritical phases) | 17.48
263.41 K, 233.4 kPa, Fluid (supercritical or subcritical phases) | 17.55
263.41 K, 234.2 kPa, Fluid (supercritical or subcritical phases) | 17.65
263.41 K, 234.9 kPa, Fluid (supercritical or subcritical phases) | 17.92
263.41 K, 235.5 kPa, Fluid (supercritical or subcritical phases) | 18.45
263.41 K, 236 kPa, Fluid (supercritical or subcritical phases) | 19
263.49 K, 230.2 kPa, Liquid | 1462.58
263.49 K, 230.4 kPa, Liquid | 1462.56
263.49 K, 231 kPa, Liquid | 1462.62
263.49 K, 231.9 kPa, Liquid | 1462.66
263.49 K, 232.1 kPa, Liquid | 1462.66
263.49 K, 235.3 kPa, Liquid | 1462.67
263.49 K, 242.7 kPa, Liquid | 1462.66
263.49 K, 244.5 kPa, Liquid | 1462.72
263.49 K, 250.6 kPa, Liquid | 1462.76
263.49 K, 257.4 kPa, Liquid | 1462.73
263.49 K, 258.3 kPa, Liquid | 1462.79
263.49 K, 263.2 kPa, Liquid | 1462.89
263.49 K, 273.9 kPa, Liquid | 1462.91
263.49 K, 279.5 kPa, Liquid | 1462.96
263.49 K, 288.7 kPa, Liquid | 1462.98
263.49 K, 322.8 kPa, Liquid | 1463.12
263.49 K, 327.2 kPa, Liquid | 1463.13
263.49 K, 333.9 kPa, Liquid | 1463.18
263.49 K, 337.8 kPa, Liquid | 1463.15
263.49 K, 341.2 kPa, Liquid | 1463.16
263.49 K, 345.9 kPa, Liquid | 1463.25
263.49 K, 354.4 kPa, Liquid | 1463.25
263.49 K, 361.4 kPa, Liquid | 1463.34
263.49 K, 370.3 kPa, Liquid | 1463.38
263.49 K, 388 kPa, Liquid | 1463.45
263.49 K, 390.4 kPa, Liquid | 1463.48
263.49 K, 401.9 kPa, Liquid | 1463.54
263.49 K, 413.3 kPa, Liquid | 1463.57
263.49 K, 431.1 kPa, Liquid | 1463.65
263.49 K, 433.8 kPa, Liquid | 1463.67
263.49 K, 447.7 kPa, Liquid | 1463.79
263.49 K, 467.1 kPa, Liquid | 1463.9
263.49 K, 484.1 kPa, Liquid | 1463.94
263.49 K, 491.3 kPa, Liquid | 1463.96
263.49 K, 502.2 kPa, Liquid | 1464.1
263.49 K, 506.6 kPa, Liquid | 1464.15
263.49 K, 518.2 kPa, Liquid | 1464.18
263.49 K, 527.6 kPa, Liquid | 1464.19
263.49 K, 529.9 kPa, Liquid | 1464.3
263.49 K, 550.9 kPa, Liquid | 1464.3
263.49 K, 554.1 kPa, Liquid | 1464.39
263.49 K, 574.4 kPa, Liquid | 1464.38
263.49 K, 584.9 kPa, Liquid | 1464.43
263.49 K, 596.2 kPa, Liquid | 1464.57
263.49 K, 625.2 kPa, Liquid | 1464.59
263.49 K, 652.6 kPa, Liquid | 1464.81
263.49 K, 673 kPa, Liquid | 1464.96
263.49 K, 705.5 kPa, Liquid | 1465.02
263.49 K, 728.3 kPa, Liquid | 1465.2
263.49 K, 751.2 kPa, Liquid | 1465.25
263.49 K, 772.1 kPa, Liquid | 1465.47
263.49 K, 792.6 kPa, Liquid | 1465.54
263.49 K, 813.9 kPa, Liquid | 1465.54
263.49 K, 853.1 kPa, Liquid | 1465.89
263.49 K, 888.3 kPa, Liquid | 1465.94
263.49 K, 912.8 kPa, Liquid | 1466.07
263.49 K, 939.3 kPa, Liquid | 1466.24
263.49 K, 962.1 kPa, Liquid | 1466.39
263.49 K, 982.9 kPa, Liquid | 1466.54
263.49 K, 1031 kPa, Liquid | 1466.76
263.49 K, 1064.1 kPa, Liquid | 1466.9
263.49 K, 1098.2 kPa, Liquid | 1467.05
263.49 K, 1132.8 kPa, Liquid | 1467.28
263.49 K, 1165.8 kPa, Liquid | 1467.41
263.49 K, 1201.1 kPa, Liquid | 1467.57
263.49 K, 1250.1 kPa, Liquid | 1467.92
